Source: US20110053916A1 (Vertex Pharmaceuticals Incorporated, priority 2009, published 2011)

Legend:
PknB = target: T1, PknB (Mycobacterium tuberculosis, UniProt P9WI81); test: biochemical; parameters: species or system M. tuberculosis; details: 3 nM PknB, 6 uM GarA, 3 μM ATP, 30 min, competitive tight-binding fit, several symbols in a cell = repeat determinations; for Ki: read-out: Ki Values
T1 construct: made in house

[1] = test system: Mycobacterium tuberculosis H37Ra; test: Mycobacterium tuberculosis growth inhibition assay (microtiter dilution, resazurin reduction); assay type: cell-based; details: 7H9 broth, 9 days + 24 h resazurin, lowest concentration inhibiting resazurin reduction by >70%, several symbols in a cell = repeat determinations
Description: Compounds were screened for their ability to inhibit the growth of Mycobacterium tuberculosis H37Ra using a standard microtiter dilution method with reduction of the dye resazurin as an indicator of growth. The growth assay was carried out in standard Mycobacterium liquid growth medium, 7H9Broth (BD Biosciences, Franklin Lakes, N.J.) supplemented with 10% ADC enrichment (BD Biosciences, Franklin Lakes, N.J.). The medium was inoculate with ˜1×10^6 cells/milliliter of Mycobacterium tuberculosis H37Ra grown on a the surface of a growth medium solid medium (7H11 agar [BD Biosciences, Franklin Lakes, N.J.] supplemented with 10% OADC enrichment [BD Biosciences, Franklin Lakes, N.J.]).
Two-fold serial dilutions (either 7 or 11-step series) of test compounds in DMSO were dispensed into 96-well assay plates (sterile, black sided, clear bottom wells) in a volume of 1 microliter. One microliter of DMSO was dispensed into a control well at the end of each series. One-hundred microliters of the bacterial cell suspension in growth medium was dispensed into each test well containing a DSMO solution of compound. The assay plates were covered with a fitted lid and incubated at 37° C. in a humidified chamber for 9 days. On the ninth day 30 microliters of a 0.01% solution of resazurin (Sigma Chemical Co., St. Louis, Mo.) in distilled water was added to each well and the baseline fluorescence of resazurin was determined by measuring well fluorescence at an excitation wavelength of 492 nm and an emission wavelength of 595 nm on a Spectrafluor Plus (Tecan, Durham, N.C.) instrument. The assay plates were returned to the incubation chamber for 24 hours. After 24 hours, the fluorescence of the wells (resulting from the reduction of resazurin dye) was measured at an excitation wavelength of 492 nm and an emission wavelength of 595 nm on the Spectrafluor Plus instrument. The minimum inhibitory concentration (MIC) was called as the lowest concentration of compound that inhibited the reduction of resazurin by >70%, as compared to the DMSO (untreated) control wells. MIC values are represented as the following values: • A* <1.6 μM • A 1.6 μM<12.5 μM • B** 12.5 μM-25.0 μM • B* 25.0 μM-50.0 μM • B 50.0 μM-100.0 μM • C >100.0 μM

T1 sequence (P9WI81 whole entry): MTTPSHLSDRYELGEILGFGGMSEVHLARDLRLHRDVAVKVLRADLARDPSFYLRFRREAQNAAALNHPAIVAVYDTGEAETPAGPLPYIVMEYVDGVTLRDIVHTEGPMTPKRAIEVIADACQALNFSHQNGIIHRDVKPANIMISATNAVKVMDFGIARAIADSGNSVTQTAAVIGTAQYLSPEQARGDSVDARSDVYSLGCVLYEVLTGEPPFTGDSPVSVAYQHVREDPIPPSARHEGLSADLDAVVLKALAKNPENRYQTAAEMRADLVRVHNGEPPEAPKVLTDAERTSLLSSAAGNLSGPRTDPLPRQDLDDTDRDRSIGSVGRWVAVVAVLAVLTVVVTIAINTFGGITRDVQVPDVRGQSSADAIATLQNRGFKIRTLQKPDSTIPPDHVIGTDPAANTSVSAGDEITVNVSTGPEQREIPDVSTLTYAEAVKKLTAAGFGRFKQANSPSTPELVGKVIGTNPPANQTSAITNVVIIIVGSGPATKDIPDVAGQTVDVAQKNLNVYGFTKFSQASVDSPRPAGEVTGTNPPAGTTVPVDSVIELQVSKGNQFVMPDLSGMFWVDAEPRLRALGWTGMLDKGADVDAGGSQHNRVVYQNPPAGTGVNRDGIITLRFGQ

SMILES: OCc1ccc(-c2ncc(F)c(Nc3cc(C4CC4)[nH]n3)n2)s1 [Compound 26, (5-(4-(5-cyclopropyl-1H-pyrazol-3-ylamino)-5-fluoropyrimidin-2-yl)thiophen-2-yl)methanol]
- Ki (PknB): 10 to 50 nM
- MIC values [1]: B+

SMILES: Cc1cnc(-c2ccc(Cl)c(C(N)=O)c2)nc1Nc1cc(C2CC2)[nH]n1 [Compound 32, 2-chloro-5-[4-[(5-cyclopropyl-1H-pyrazol-3-yl)amino]-5-methyl-pyrimidin-2-yl]-benzamide]
- Ki (PknB): 50 to 100 nM
- MIC values [1]: B+

SMILES: CNS(=O)(=O)c1ccc(-c2ncc(C)c(Nc3cc(C4CC4)[nH]n3)n2)s1 [Compound 33, 5-[4-[(5-cyclopropyl-1H-pyrazol-3-yl)amino]-5-methyl-pyrimidin-2-yl]-N-methyl-thiophene-2-sulfonamide]
- Ki (PknB): 10 to 50 nM
- MIC values [1]: B+

SMILES: Cc1cnc(-c2ccc(CO)s2)nc1Nc1cc(C2CC2)[nH]n1 [Compound 36, [5-[4-[(5-cyclopropyl-1H-pyrazol-3-yl)amino]-5-methyl-pyrimidin-2-yl]-2-thienyl]methanol]
- Ki (PknB): 50 to 100 nM
- MIC values [1]: B++, B+

SMILES: CNS(=O)(=O)c1ccc(-c2ncc(Cl)c(Nc3cc(C4CC4)[nH]n3)n2)s1 [Compound 37, 5-[5-chloro-4-[(5-cyclopropyl-1H-pyrazol-3-yl)amino]-pyrimidin-2-yl]-N-methyl-thiophene-2-sulfonamide]
- Ki (PknB): 1 to 10 nM
- MIC values [1]: B+

SMILES: Fc1cnc(-c2cccs2)nc1Nc1cc(C2CC2)[nH]n1 [Compound 41, N-(5-cyclopropyl-1H-pyrazol-3-yl)-5-fluoro-2-(thiophen-2-yl)pyrimidin-4-amine]
- Ki (PknB): 10 to 50 nM
- MIC values [1]: B+

SMILES: CNS(=O)(=O)c1ccc(-c2ncc(F)c(Nc3cc(C4CC4)[nH]n3)n2)s1 [Compound 43, 5-[4-[(5-cyclopropyl-1H-pyrazol-3-yl)amino]-5-fluoro-pyrimidin-2-yl]-N-methyl-thiophene-2-sulfonamide]
- Ki (PknB): 1 to 10 nM
- MIC values [1]: B++

SMILES: NC(=O)c1cc(-c2nccc(Nc3cc(C4CC4)[nH]n3)n2)ccc1Cl [Compound 51, 2-chloro-5-[4-[(5-cyclopropyl-1H-pyrazol-3-yl)amino]pyrimidin-2-yl]-benzamide]
- Ki (PknB): 50 to 100 nM
- MIC values [1]: B++

SMILES: OC/C=C/c1cnc(-c2ccccc2)nc1Nc1cc(C2CC2)[nH]n1 [Compound 53, (E)-3-(4-(5-cyclopropyl-1H-pyrazol-3-ylamino)-2-phenylpyrimidin-5-yl)prop-2-en-1-ol]
- Ki Values (PknB): A, B**, B**
- MIC values [1]: B+

SMILES: O=C(O)c1cccc(Nc2nccc(Nc3cc(C4CC4)n[nH]3)n2)c1 [Compound 63, 3-[[4-[(5-cyclopropyl-2H-pyrazol-3-yl)amino]pyrimidin-2-yl]amino]benzoic acid]
- Ki (PknB): > 4000 nM
- MIC values [1]: B+

SMILES: CCCc1cnc(N2CCCCC2)nc1Nc1cc(C2CC2)[nH]n1 [Compound 66, N-(5-cyclopropyl-1H-pyrazol-3-yl)-2-(1-piperidyl)-5-propyl-pyrimidin-4-amine]
- Ki (PknB): 1000 to 2000 nM
- MIC values [1]: B+

SMILES: COc1cnc(N2CCN(C)CC2)nc1Nc1cc(C2CC2)[nH]n1 [Compound 67, N-(5-cyclopropyl-1H-pyrazol-3-yl)-5-methoxy-2-(4-methylpiperazin-1-yl)-pyrimidin-4-amine]
- Ki (PknB): 10 to 50 nM
- MIC values [1]: A+

SMILES: CN(C)S(=O)(=O)c1ccc(-c2ncc(Cl)c(Nc3cc(C4CC4)[nH]n3)n2)s1 [Compound 74, 5-[5-chloro-4-[(5-cyclopropyl-1H-pyrazol-3-yl)amino]-pyrimidin-2-yl]-N,N-dimethyl-thiophene-2-sulfonamide]
- Ki (PknB): 1 to 10 nM
- MIC values [1]: A, B++, C

SMILES: O=C(O)c1ccc(Nc2ncc(Cl)c(Nc3cc(C4CC4)[nH]n3)n2)cc1 [Compound 77, 4-[[5-chloro-4-[(5-cyclopropyl-1H-pyrazol-3-yl)amino]-pyrimidin-2-yl]amino]benzoic acid]
- Ki (PknB): 100 to 500 nM
- MIC values [1]: B, C
